Assay results as given in US20230030989A1, “JUST SUNSCREEN” (Pouch Pac Innovations, LLC, priority 2019, published 2023).

Conditions: in vivo
Source text: Subjects reported to the testing facility, at which time inclusion/exclusion criteria was reviewed and Informed Consent obtained. Upon verification of eligibility to enroll, the test articles were applied to the upper arm of each subject. The test articles were applied to the Webril□ disks according to a dose regime (see Section 5.1). The skin was marked with dots of crystal violet applied on either side of the top disk and below the bottom disk of the strip to enable exact location of subsequent patches. Each subject was asked to avoid the dye marks during washing and to keep the patches dry.
Subjects received patches containing the test article and two standard controls which were applied as 0.2 ml/0.2 g samples in one of five randomly assigned orders on the upper arm. The sample order for each subject was documented and maintained throughout the study in the form of a color-coded identification card. Subjects were instructed to keep the patches dry and in place for 23 hours then to remove and discard them and to return to the test center one hour later. Patches were applied on Days 1, 2, 3 and 4. Patches were applied to the same site on each day unless a reaction stronger than a mild erythema (i.e. greater than a score of 1.5 (Appendix 5)) was present in which case the patch strip was cut and the relevant patch (es) not reapplied. Assessment of patch sites was immediately before application of the next patch on Days 2, 3, 4 and on Day 5. After removal of the patches the test sites were wiped with a damp tissue to remove any remaining product.

CCCCCCCCCCCCOS(=O)(=O)[O-].[Na+] [0.3% W/V SLS]
patch site score Day 2, MEAN: 0.08 | patch site score Day 3, MEAN: 0.37 | patch site score Day 4, MEAN: 0.63 | patch site score Day 5, MEAN: 0.82
